US11046684B2, “Compound for selectively inhibiting kinase and use thereof” (SHANGHAI ZHEYE BIOTECHNOLOGY LIMITED-LIABILITY COMPANY, priority 2017, dated 2021)

Experiments:
[1] = molecular target: T1, FGFR3 kinase recombinant protein (Homo sapiens, UniProt P22607); assay: Inhibition of FGFR kinase activity, ADP-Glo method; assay type: biochemical; conditions: 30 min preincubation
T1 construct: purchased BPS Bioscience
Procedure: (§1) The inhibitory activities of the test substances on FGFR kinase were determined by the ADP-Glo method. The human FGFR1, FGFR2 and FGFR4 kinase recombinant proteins and kinase activity assay kit ADP-Glo™ were purchased from Promega, and the FGFR3 kinase recombinant protein was purchased from BPS Bioscience. The test substance, which was diluted gradiently from 1000 nM, was incubated with the FGFR1, FGFR2, FGFR3 or FGFR4 kinase recombinant protein for 30 minutes, reacted with the substrate in the presence of ATP, and ADP-Glo™ detected the generated ADP and further produced chemiluminescence signals. Microplate reader (Perkin Elmer, Envision) were used to determine the reading for each well, and the origin 7.5 was used to calculate and analyze the IC50, i.e. the concentration at which 50% inhibition occurred.
(§2) The inhibition of the compounds of the present invention on FGFR1-4 kinase activity was measured by the above test, and the measured IC50 (nM) values are shown in Table 1.

[2] = molecular target: T2, FGFR2 kinase recombinant protein (Homo sapiens, UniProt P21802); assay: Inhibition of FGFR kinase activity, ADP-Glo method; assay type: biochemical; conditions: 30 min preincubation
T2 construct: purchased Promega
Procedure: as §1, §2

[3] = molecular target: T3, FGFR4 kinase recombinant protein (Homo sapiens, UniProt P22455); assay: Inhibition of FGFR kinase activity, ADP-Glo method; assay type: biochemical; conditions: 30 min preincubation
T3 construct: purchased Promega
Procedure: as §1, §2

[4] = molecular target: T4, FGFR1 kinase recombinant protein (Homo sapiens, UniProt P11362); assay: Inhibition of FGFR kinase activity, ADP-Glo method; assay type: biochemical; conditions: 30 min preincubation
T4 construct: purchased Promega
Procedure: as §1, §2

[5] = system: SNU387; assay: HCC cell proliferation inhibition, SRB method; assay type: cell-based; conditions: Homo sapiens, SNU-387, 72 hours
Procedure: [Worded in the source for another cell line; this cell line is reported under the same test.] (§3) The inhibitory activities of the compounds of the examples on cell proliferation in vitro were tested using five hepatocellular carcinoma cell lines: Hep3B, Huh7, JHH-7, SK-hep-1, SNU423. The above cells were all from ATCC (American Type Culture Collection). Among them, Hep3B, Huh-7, JHH-7 these three cell lines all have FGF19 gene amplification (increased copy number) and increased mRNA expression level, as well as high level expression of FGFR4 and KLB gene mRNA; SK-hep-1, SNU423 cell lines have no FGF19 gene amplification and the expression level of FGF19 mRNA was very low (Barretina J, Caponigro G, et al. Nature 2012; 483: 603-7.).
(§4) Cell proliferation was measured using the SRB (Sulforhodamine-B, sulforhodamine B) method. The cells were cultured to a cell fusion of more than 90% and then trypsinized. After counting, the cells were inoculated into 96-well plates at 6000 cells/well. After adherent culture overnight, the test compound was dissolved in DMSO and diluted with complete medium, added to the culture wells to form a 5-fold dilution of 10 concentration gradients from 10 μM. The cells were incubated for further 72 hours, 50 μl of 50% trichloroacetic acid was added to each well and fixed at 4° C. for 1 hour. The trichloroacetic acid in each well was discarded and washed 5 times with 300 μl of double distilled water. After drying at room temperature, 50 μl of 0.4% SRB dye solution (1% acetic acid/0.4% SRB) was added to each well to react for 15 min. The dye solution of each well was discarded, washed 6-7 times with 1% acetic acid, and dried at room temperature. 200 μl of 10 mM Tris solution (pH=10.5) was added to each well and shaken until the solution was clear. The absorbance at 490 nm of each well was measured by a microplate reader. The reading of the wells where the concentration of the test compound was 0 was used as a control, and fitted with Origin 7.5 software, the IC50 value (nM) of the test substance for inhibiting cell proliferation was calculated.
(§5) The antitumor cell proliferation activities of the compounds of the present invention were measured by the above test, and the measured IC50 (nM) values are shown in Table 2.

[6] = system: Hep3B; assay: HCC cell proliferation inhibition, SRB method; assay type: cell-based; conditions: Homo sapiens, 72 hours
Procedure: as §3, §4, §5

[7] = system: HUH-7; assay: HCC cell proliferation inhibition, SRB method; assay type: cell-based; conditions: Homo sapiens, 72 hours
Procedure: as §3, §4, §5

[8] = system: HCC cells with FGF19 gene amplification; assay: HCC cell line panel proliferation, selectivity conclusion; assay type: cell-based; conditions: conclusion from Table 2
Procedure: as §3, §4

[9] = system: JHH-7; assay: HCC cell proliferation inhibition, SRB method; assay type: cell-based; conditions: JHH7, 72 hours
Procedure: as §3, §4, §5

[10] = system: SK-hep-1; assay: HCC cell proliferation inhibition, SRB method; assay type: cell-based; conditions: Homo sapiens, SK-HEP1, 72 hours
Procedure: as §3, §4, §5

[11] = system: Hep3B transplantation tumor; assay: HCC cell subcutaneous transplantation tumor growth inhibition test in nude mice; assay type: in vivo; conditions: for growth inhibition of the transplantation tumor: 50 mg/kg, intragastric, BID 21 days, Hep3B nude mice; for adverse reactions (water and food take, activity, body weight) during administration: all dose groups 50, 100, 150 mg/kg BID, 21 days, tumor-bearing nude mice
Procedure: The Hep3B cells in the logarithmic growth phase were cultured and collected, and subcutaneously inoculated into the right back of nude mice (female Balb/c Nude mice, from Beijing Vitalriver) at 1×10^7 cells/mouse. When the tumor grew to 50-300 mm^3, tumor-bearing nude mice were randomly grouped, 6 animals per group. Subsequently, each group of animals was administered at the following dose, and the day of the first dose was defined as the first day of the test.
Blank solvent (ultra-pure water) control group, compound 1, compound 2 were respectively set to 50 mg/kg, 100 mg/kg, 150 mg/kg three dose groups, intragastric administration, twice a day (BID), for 21 consecutive days. The state of the animals was observed daily during the administration; the body weight was measured once a week before the first administration; and the body weight was measured twice a week after the start of the administration. The size of the transplantation tumor was measured every 3 days after the start of administration. Tumor volume (TV)=½×a×b^2, wherein, a and b represent the length and width of the tumor, respectively. The relative tumor volume (RTV) was calculated based on the measured results, RTV=Vt/V0×100, wherein V0 is the measured tumor volume on the day of the cage (i.e., day 0), and Vt is the tumor volume at each measurement.
After establishing the Hep3B nude mice transplantation tumor model according to the method described above, the mice were divided into three groups and intragastrically administered with a blank solvent (ultra-pure water) control, compound 1 (15 mg/kg, BID), sorafenib (prepared according to the method described in the literature CN1721397A and identified) respectively, 30 mg/kg, once a day (QD), for 21 consecutive days. The growth inhibition on the transplantation tumor of the test substances, animal status and body weight were evaluated in the same manner as above. The tumor volume (TV) was measured and the tumor inhibition rate was calculated according to the tumor inhibition rate (TGI)=(1−T/C)×100%. C: average tumor volume of the control group; T: average tumor volume of the administration group.

T2 sequence (P21802 22-821): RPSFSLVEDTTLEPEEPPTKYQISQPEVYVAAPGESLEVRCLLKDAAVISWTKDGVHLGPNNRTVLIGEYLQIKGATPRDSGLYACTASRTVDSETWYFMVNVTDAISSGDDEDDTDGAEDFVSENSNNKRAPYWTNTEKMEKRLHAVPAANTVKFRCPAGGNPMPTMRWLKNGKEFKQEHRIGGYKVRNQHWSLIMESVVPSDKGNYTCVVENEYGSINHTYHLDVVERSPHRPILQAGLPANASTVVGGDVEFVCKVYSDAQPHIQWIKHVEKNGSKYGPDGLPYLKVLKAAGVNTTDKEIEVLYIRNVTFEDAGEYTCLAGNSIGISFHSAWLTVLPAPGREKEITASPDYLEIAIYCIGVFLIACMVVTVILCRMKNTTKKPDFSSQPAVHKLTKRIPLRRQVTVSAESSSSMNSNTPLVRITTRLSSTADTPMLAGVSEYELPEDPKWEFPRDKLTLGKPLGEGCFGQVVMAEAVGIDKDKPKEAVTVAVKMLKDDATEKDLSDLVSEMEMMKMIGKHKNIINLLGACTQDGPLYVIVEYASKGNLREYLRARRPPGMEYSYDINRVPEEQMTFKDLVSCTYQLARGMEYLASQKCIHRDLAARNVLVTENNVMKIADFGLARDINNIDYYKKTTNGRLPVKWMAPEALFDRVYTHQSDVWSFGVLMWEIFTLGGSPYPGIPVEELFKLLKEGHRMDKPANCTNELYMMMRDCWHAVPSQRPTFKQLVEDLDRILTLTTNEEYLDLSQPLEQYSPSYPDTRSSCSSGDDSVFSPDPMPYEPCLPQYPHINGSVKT
T4 sequence (P11362 22-822): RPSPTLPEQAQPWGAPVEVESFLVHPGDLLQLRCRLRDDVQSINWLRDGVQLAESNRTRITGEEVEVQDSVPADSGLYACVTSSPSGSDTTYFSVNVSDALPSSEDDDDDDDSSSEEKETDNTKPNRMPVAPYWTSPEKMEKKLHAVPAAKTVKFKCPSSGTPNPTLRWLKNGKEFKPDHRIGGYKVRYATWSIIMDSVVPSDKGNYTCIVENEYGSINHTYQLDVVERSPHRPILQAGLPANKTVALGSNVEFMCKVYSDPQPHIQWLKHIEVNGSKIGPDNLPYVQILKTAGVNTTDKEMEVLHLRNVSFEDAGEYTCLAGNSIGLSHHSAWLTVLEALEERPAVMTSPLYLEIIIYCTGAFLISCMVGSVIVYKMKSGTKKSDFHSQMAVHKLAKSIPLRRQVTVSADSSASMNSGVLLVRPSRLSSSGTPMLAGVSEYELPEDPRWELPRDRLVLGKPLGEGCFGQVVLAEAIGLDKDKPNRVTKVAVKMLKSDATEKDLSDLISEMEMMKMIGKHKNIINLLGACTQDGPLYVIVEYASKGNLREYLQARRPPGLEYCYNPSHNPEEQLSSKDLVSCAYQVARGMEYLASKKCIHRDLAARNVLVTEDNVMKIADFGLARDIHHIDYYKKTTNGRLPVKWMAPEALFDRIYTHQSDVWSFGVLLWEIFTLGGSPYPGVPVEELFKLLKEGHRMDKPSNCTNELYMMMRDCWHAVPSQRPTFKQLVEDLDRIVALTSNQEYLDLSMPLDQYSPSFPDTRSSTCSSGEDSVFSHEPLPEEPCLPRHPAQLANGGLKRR
T1 sequence (P22607 23-806): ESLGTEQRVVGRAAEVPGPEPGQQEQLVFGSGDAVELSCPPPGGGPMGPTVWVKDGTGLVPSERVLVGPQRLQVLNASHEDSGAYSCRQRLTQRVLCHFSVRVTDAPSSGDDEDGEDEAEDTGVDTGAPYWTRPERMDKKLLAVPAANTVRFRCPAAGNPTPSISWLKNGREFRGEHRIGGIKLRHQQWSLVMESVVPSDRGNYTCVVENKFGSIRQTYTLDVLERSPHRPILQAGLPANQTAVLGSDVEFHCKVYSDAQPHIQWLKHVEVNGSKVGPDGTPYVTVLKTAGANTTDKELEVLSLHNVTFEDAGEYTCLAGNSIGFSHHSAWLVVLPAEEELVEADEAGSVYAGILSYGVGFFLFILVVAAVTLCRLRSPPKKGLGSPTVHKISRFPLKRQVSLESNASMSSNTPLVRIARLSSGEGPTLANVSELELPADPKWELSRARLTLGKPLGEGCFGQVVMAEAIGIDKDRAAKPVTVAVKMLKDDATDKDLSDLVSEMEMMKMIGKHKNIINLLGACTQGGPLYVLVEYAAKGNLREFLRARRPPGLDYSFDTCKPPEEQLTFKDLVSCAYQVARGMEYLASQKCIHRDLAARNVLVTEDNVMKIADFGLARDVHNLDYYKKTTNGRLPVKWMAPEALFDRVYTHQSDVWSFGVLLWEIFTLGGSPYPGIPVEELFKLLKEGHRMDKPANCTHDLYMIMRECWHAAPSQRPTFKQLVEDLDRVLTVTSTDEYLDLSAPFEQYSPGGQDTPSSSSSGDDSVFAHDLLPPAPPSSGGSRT
T3 sequence (P22455 22-802): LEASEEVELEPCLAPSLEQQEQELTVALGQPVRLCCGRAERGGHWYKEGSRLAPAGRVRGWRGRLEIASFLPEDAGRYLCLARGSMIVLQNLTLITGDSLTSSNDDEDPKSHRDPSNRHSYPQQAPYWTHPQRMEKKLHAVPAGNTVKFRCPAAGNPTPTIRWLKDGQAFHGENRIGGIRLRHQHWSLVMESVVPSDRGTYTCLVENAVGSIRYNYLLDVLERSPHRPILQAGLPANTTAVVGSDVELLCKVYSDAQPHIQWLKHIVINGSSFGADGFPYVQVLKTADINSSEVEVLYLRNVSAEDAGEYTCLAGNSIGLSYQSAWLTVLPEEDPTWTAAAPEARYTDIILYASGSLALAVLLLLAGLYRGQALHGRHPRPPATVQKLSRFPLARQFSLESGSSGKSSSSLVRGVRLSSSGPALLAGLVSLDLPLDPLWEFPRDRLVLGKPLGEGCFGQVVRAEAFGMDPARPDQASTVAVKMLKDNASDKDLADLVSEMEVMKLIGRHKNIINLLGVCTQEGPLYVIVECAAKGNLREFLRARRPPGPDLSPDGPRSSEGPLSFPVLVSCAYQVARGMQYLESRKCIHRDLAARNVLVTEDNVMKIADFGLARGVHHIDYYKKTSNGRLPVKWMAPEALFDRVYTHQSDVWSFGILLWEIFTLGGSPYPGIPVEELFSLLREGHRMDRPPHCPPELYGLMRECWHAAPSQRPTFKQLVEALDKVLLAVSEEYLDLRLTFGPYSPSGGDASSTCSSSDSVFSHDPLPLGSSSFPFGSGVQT

SMILES	IC50 [1] [nM]	IC50 [2] [nM]	IC50 [3] [nM]	IC50 [4] [nM]	IC50 [5] [nM]	IC50 [6] [nM]	IC50 [7] [nM]	IC50 [9] [nM]	IC50 [10] [nM]	selective inhibitory effect on HCC cells with FGF19 gene amplification [8]	growth inhibition of the transplantation tumor [11]	adverse reactions (water and food take, activity, body weight) during administration [11]	efficacy compared with sorafenib 30 mg/kg QD ([11]; compound 1 15 mg/kg BID, Hep3B nude mouse transplantation tumor model)
C#CCCNc1cc(NC(=O)N2CCCc3cc(CN4CCOCC4=O)c(C=O)nc32)ncc1C#N [Compound 3]	> 1000	> 1000	0.62	> 1000	> 1000	0.62	5.7			significant selective inhibitory effect			
[2H]C([2H])([2H])N1CCN(Cc2cc3c(nc2C=O)N(C(=O)Nc2cc(NCCC#C)c(C#N)cn2)CCC3)C(=O)C1 [Compound 4]	> 1000	> 1000	0.37	> 1000	> 1000	0.36	2.8			significant selective inhibitory effect			
C#CCNc1cc(NC(=O)N2CCCc3cc(CN4CCN(C)CC4=O)c(C=O)nc32)ncc1C#N [Compound 1]	> 1000	> 1000	0.41	> 1000	> 1000	0.35	4	3	> 1000	significant selective inhibitory effect	significant	no adverse reactions occurred	superior to that of sorafenib

The next lines start with results.

IC50 [1] [nM]	IC50 [2] [nM]	IC50 [3] [nM]	IC50 [4] [nM]	IC50 [5] [nM]	IC50 [6] [nM]	IC50 [7] [nM]	IC50 [9] [nM]	IC50 [10] [nM]	SMILES	selective inhibitory effect on HCC cells with FGF19 gene amplification [8]	growth inhibition of the transplantation tumor [11]	adverse reactions (water and food take, activity, body weight) during administration [11]	efficacy compared with sorafenib 30 mg/kg QD ([11]; compound 1 15 mg/kg BID, Hep3B nude mouse transplantation tumor model)
> 1000	> 1000	0.59	> 1000	> 1000	0.53	4.9			C#CCCCNc1cc(NC(=O)N2CCCc3cc(CN4CCN(C)CC4=O)c(C=O)nc32)ncc1C#N [Compound 6]	significant selective inhibitory effect			
> 1000	> 1000	0.33	> 1000	> 1000	0.4	2.9	2.6	> 1000	C#CCCNc1cc(NC(=O)N2CCCc3cc(CN4CCN(C)CC4=O)c(C=O)nc32)ncc1C#N [Compound 2]	significant selective inhibitory effect	significant	no adverse reactions occurred	
